Reference: patent US20210046139A1, “VEGETATION WATERS AND USES THEREOF” (FATTORIA LA VIALLA DI GIANNI, ANTONIO E BANDINO LO FRANCO - …, priority 2018, published 2021)
Marks after values point to notes of the source that are not given here.

Tests used:
Assay type in all cases: in vivo, Sprague-Dawley rats
[1] = Body weight, daily food and water intake in STZ diabetic and control rats; details: 5 weeks; for BODY WEIGHT: 50 mg/kg/day (HT equivalent) in drinking water; for BODY WEIGHT / FOOD INTAKE: mean ± S.E.; for WATER INTAKE / FOOD INTAKE: 50 mg/kg/day
Excerpt: (§1) Use was made of 48 male Sprague-Dawley rats (Harlan, Italy) with a weight comprised from 180-200 g. A well-established model of streptozotocin (STZ)-induced diabetes in rats was used. Streptozotocin is a glucosamine derivative of nitrosurea which selectively destroys the β cells of the pancreatic islets and causes the development of diabetes with hyperglycemia and glycosuria. The model shares a series of characteristics with human diabetic complications at both a functional level and a biochemical level, such as, for example, a reduced nervous conduction, loss of small-diameter sensory nerve fibers in the skin, reduction in Na+ and K+-ATPase activity and early alterations of the thermal and mechanical nociceptive thresholds. In this study, diabetes was induced in 24 rats with a single intraperitoneal injection of 60 mg/kg of STZ dissolved in a sodium citrate buffer (pH 4.5). 24 rats injected only with the vehicle were used as non-diabetic controls. Hyperglycemia was confirmed by measuring glycosuria 72 hours after the injection of STZ using Keto-Diabur strips (KD-5000; Roche Diagnostics Spa, Italy). Only the animals with glycosuria >5% were classified as diabetic and included in the study. […] The animals were then randomized to receive the concentrate of the invention at an HT equivalent dose of 50 mg/kg/day or 50 mg/kg/day of pure HT in drinking water, according to the following treatment groups: The daily dose of compounds was administered starting from the 7th week after the injection of STZ or the vehicle. The treatment lasted 5 weeks and urine samples were taken. The animals were then sacrificed and the plasma, kidneys and sciatic nerves were removed. The sacrifice took place within 2 hours after the last administration of the concentrate, HT or the vehicle. During the trial, the rats were weighed weekly to monitor their weight gain/loss. Hyperglycemia was confirmed in every rat by measuring the glucose level in the blood taken from the vein of the tail with a suitable apparatus (Glucomen, Menarini, Italy), 15 days after the injection of STZ. A plasma glucose level above 300 mg/dL was defined as the hyperglycemia threshold for defining the animals as diabetics.

[2] = tested on: STZ diabetic rats; assay: Plasma glucose and glycated hemoglobin (HbA1c); details: for HbA1c / PLASMA GLUCOSE: 50 mg/kg/day, 5 weeks, mean ± S.E.
Excerpt: as §1, with “A” for “Use was made of 48 male Sprague-Dawley rats (Harlan, Italy) with a weight comprised from 180-200 g. A”, “diabetics. At the end of the 5-week treatment period, urine and plasma were collected to measure the level of triglycerides (TG), total cholesterol (TC), high-density lipoprotein (HDL) and other parameters using commercially available diagnostic kits.” for “diabetics.”

[3] = tested on: STZ diabetic rats; assay: Thiobarbituric acid reactive substances (TBARS) in plasma and kidney; details: 50 mg/kg/day, 5 weeks, mean ± S.E.
Excerpt: A well-established model of streptozotocin (STZ)-induced diabetes in rats was used. Streptozotocin is a glucosamine derivative of nitrosurea which selectively destroys the β cells of the pancreatic islets and causes the development of diabetes with hyperglycemia and glycosuria. The model shares a series of characteristics with human diabetic complications at both a functional level and a biochemical level, such as, for example, a reduced nervous conduction, loss of small-diameter sensory nerve fibers in the skin, reduction in Na+ and K+-ATPase activity and early alterations of the thermal and mechanical nociceptive thresholds. In this study, diabetes was induced in 24 rats with a single intraperitoneal injection of 60 mg/kg of STZ dissolved in a sodium citrate buffer (pH 4.5). 24 rats injected only with the vehicle were used as non-diabetic controls. Hyperglycemia was confirmed by measuring glycosuria 72 hours after the injection of STZ using Keto-Diabur strips (KD-5000; Roche Diagnostics Spa, Italy). Only the animals with glycosuria >5% were classified as diabetic and included in the study. […] The levels of TBARS were determined as an indicator of the production of reactive oxygen species. […] The upper phase was measured using fluorimetry, (Infinite M200; Tecan, Milan, Italy) at an excitation wavelength of 532 nm and emission wavelength of 553 nm. […]

[4] = non-diabetic control rats (CTRL)

Question: What does the source list for `OCCc1ccc(O)c(O)c1` [HT, hydroxytyrosol]?
Answer: BODY WEIGHT ([1]; STZ diabetic rats): 216.6 ± 13.0 g; WATER INTAKE ([1]; STZ diabetic rats): 170.1* ml/24 h; FOOD INTAKE ([1]; STZ diabetic rats): 33.3 ± 3.7 g/24 h; BODY WEIGHT [1, 4]: 450.4 ± 16.4 g; WATER INTAKE [1, 4]: 69.5 ml/24 h; FOOD INTAKE [1, 4]: 20.6 ± 0.9 g/24 h; reduction in HbA1c (glycated hemoglobin) ([2]; STZ diabetic rats vs. untreated diabetic rats): 20%; HbA1c ([2]; STZ diabetic rats): 52.3 ± 5.3 mM/mol; PLASMA GLUCOSE ([2]; STZ diabetic rats): 729.6 ± 36.5 mg/dL; HbA1c [2, 4]: 16.7 ± 0.2 mM/mol; PLASMA GLUCOSE [2, 4]: 186.1 ± 3.2 mg/dL; PLASMA TBARS ([3]; STZ diabetic rats): 12.1 ± 1.2 nmol/mL; PLASMA TBARS [3, 4]: 4.3 ± 0.5 nmol/mL
